Patent US8877745B2, “CCR2 receptor antagonists, method for producing the same, and use thereof as medicaments” (Boehringer Ingelheim International GmbH, priority 2010, dated 2014)

Biological target: T1, CCR2 (Homo sapiens, UniProt P41597)
T1 construct: Membranes were prepared from THP-1 cells; endogenous in cells; host or cells: THP-1 (human acute monocytic leukaemia cells), membrane preparation
Assay: CCR2 receptor membrane binding assay ([125I]MCP-1, THP-1 cell membranes, SPA beads)
Details: THP-1 membranes, [125I]MCP-1, bound radioactivity determined after 8 h; read-out: hKi
Protocol: The above exemplary substances have been tested for binding to CCR2 using a binding assay as outlined herein below:
THP-1 cells (human acute monocytic leukaemia cells) were cultured under standardized conditions at 37° C. and 5% CO2 in a humidified incubator. THP-1 cells were cultivated in RPMI 1640 medium (Gibco 21875) containing 1% MEM-NEAA (Gibso 11140) 2 mM L-glutamine, 1.5 g/L sodium bicarbonate, 4.5 g/L glucose, 10 mM HEPES and 1.0 mM sodium pyruvate, 90%; 10% fetal calf serum (FCS Gibco 10500-064).
Membranes were prepared from THP-1 cells. THP-1 cells were centrifuged at 300×g at 4° C. for 10 min. The cell pellet was resuspended in Phosphate Buffer Saline (PBS, including 10 μM Pefabloc and a protease inhibitor mix ‘complete’, Boehringer Mannheim (1 tablet/50 ml)), to a concentration of […]. The membrane preparation was performed by disrupting the cells by nitrogen […] (at 50 bar, for 1 h) in a “Nitrogen Bombe” (Parr Instrument). Cell debris was removed by centrifugation (800×g at 4° C., 1 min). The supernatant was centrifuged at 80000×g, 4° C. for 30 min to sediment the cell membranes. Usually 50 mg of protein (Bradford assay) were yielded from 1×10E9 cells. The membranes were resuspended in 25 mM HEPES, 25 mM MgCl2, 1 mM CaCl2, 10% Glycerine for storage in aliquots at −80° C. in 25 mM HEPES, 25 mM MgCl2, 1 mM CaCl2, 10% Glycerine and stored at −80° C.
Receptor Membrane Binding Assay:
Perkin Elmer NEX 332 Jod 125 MCP-1, Stock: 2200 Ci/mmol solved in […] assay buffer, stored at −20° C. THP-1 membrane were adjusted with 25 mM HEPES, pH 7.2; 5 mM MgCl2; 0.5 mM CaCl2; 0.2% BSA assay buffer to a concentration of 2.5 μg/15 μl. Amersham Biosciences PVT-WGA Beads (RPNQ0001) were adjusted with assay buffer to a concentration of 0.24 mg/30 μl. For preparation of the membrane-bead-suspension membranes and beads were incubated for 30 min at RT under rotation (60 rpm) with a ratio of 1:2. Test compounds dissolved in 100% DMSO to a concentration of 10 mM and are further diluted with 100% DMSO to 1 mM. All additional compound dilutions were obtained with assay buffer, final 1% DMSO. Compounds, membrane-bead-suspension and [^125I]MCP-1 (ca. 25000 cpm/10 μl) were incubated. Bound radioactivity was determined by scintillation counter after 8 h. Determination of affinity of test compounds (dissociation constant hKi) is calculated by iterative fitting of experimental data using the “easy sys” program, which is based on law of mass action (Schittkowski K. (1994), Numerische Mathematik, Vol. 68, 129-142).

T1 sequence (P41597 whole entry): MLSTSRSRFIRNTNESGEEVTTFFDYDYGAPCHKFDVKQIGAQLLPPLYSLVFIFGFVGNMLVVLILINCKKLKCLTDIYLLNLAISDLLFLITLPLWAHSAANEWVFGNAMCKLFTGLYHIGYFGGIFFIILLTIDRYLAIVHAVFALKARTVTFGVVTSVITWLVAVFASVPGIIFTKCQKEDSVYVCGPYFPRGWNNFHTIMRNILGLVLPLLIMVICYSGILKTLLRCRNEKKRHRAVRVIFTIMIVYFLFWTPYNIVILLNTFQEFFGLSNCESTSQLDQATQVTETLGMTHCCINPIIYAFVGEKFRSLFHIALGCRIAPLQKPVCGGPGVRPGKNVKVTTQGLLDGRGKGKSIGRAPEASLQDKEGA

| SMILES | Ki |
| --- | --- |
| COC1COCCC1NC1CCN(C(=O)c2ncnc(N3CCc4ccc(C#N)cc4C3)c2C)CC1 (stereo not drawn) [Example 55] | 235 nM |
| Cc1c(C(=O)N2CCC(N3CCCCC3)CC2)ncnc1N1CCc2ccc(C(F)(F)F)cc2C1 [Example 80] | 101 nM |
| Cc1c(C(=O)N2CCC(N3CCOCC3)CC2)ncnc1N1CCc2ccc(C(F)(F)F)cc2C1 [Example 82] | 203 nM |
| Cc1ccc(C2CCN(c3ncnc(C(=O)N4CCC(N5CCC(N(C)S(C)(=O)=O)CC5)CC4)c3C)CC2)cc1 [Example 24] | 1300 nM |
| CO[C@@H]1COCC[C@@H]1N(C)C1CCN(C(=O)c2ncnc(N3CCc4ccc(C(F)(F)F)cc4C3)c2C)CC1 [Example 85] | 5 nM |
| COC1COCCC1NC1CCN(C(=O)c2ncnc(N3CCC4(CC3)CC(=O)c3ccccc3O4)c2C)CC1 (stereo not drawn) [Example 62h] | 983 nM |
| CO[C@H]1COCC[C@H]1N(C)C1CCN(C(=O)c2ncnc(N3CCc4ccc(C(F)(F)F)cc4C3)c2C)CC1 [Example 84] | 41 nM |
| Cc1c(C(=O)N2CCC(N3CCC(NS(C)(=O)=O)CC3)CC2)ncnc1N1CCc2ccc(C(F)(F)F)cc2C1 [Example 37] | 18 nM |
| Cc1c(C(=O)N2CCC(N3CCC(N(C)S(C)(=O)=O)CC3)CC2)ncnc1-n1ccc2cc(C(F)(F)F)ccc21 [Example 69g] | 1300 nM |
| COC1COCCC1NC1CCN(C(=O)c2ncnc(N3CCC4(CC3)CC(=O)c3cc(F)ccc3O4)c2C)CC1 (stereo not drawn) [Example 62g] | 538 nM |
| Cc1c(C(=O)N2CCC(N[C@H]3CCOC[C@H]3F)CC2)ncnc1N1COc2ccc(C(F)(F)F)cc2C1 [Example 69o] | 10 nM |
| Cc1c(C(=O)N2CCC(N3CCC(O)CC3)CC2)ncnc1N1CCc2ccc(C(F)(F)F)cc2C1 [Example 72] | 104 nM |
| COC1COCCC1NC1CCN(C(=O)c2ncnc(N3CCN(c4ccc(Cl)cc4C)CC3)c2C)CC1 (stereo not drawn) [Example 62y] | 12 nM |
| COC1COCCC1NC1CCN(C(=O)c2ncnc(N3CCc4c(Cl)cc(Cl)cc4C3)c2C)CC1 (stereo not drawn) [Example 39] | 49 nM |
| COC1COCCC1NC1CCN(C(=O)c2ncnc(N3CCN(c4c(C)cccc4C)CC3)c2C)CC1 (stereo not drawn) [Example 62ai] | 34 nM |
| Cc1c(C(=O)N2CCC(N3CCC(N(C)S(C)(=O)=O)CC3)CC2)ncnc1N1CCC(c2ccccc2C(F)(F)F)CC1 [Example 25] | 657 nM |

More lines, now with the values ahead:

| Ki | SMILES |
| --- | --- |
| 405 nM | COC1COCCC1NC1CCN(C(=O)c2ncnc(N3CCC(c4ccccc4F)C3)c2C)CC1 (stereo not drawn) [Example 51] |
| 1050 nM | Cc1c(C(=O)N2CCC(N3CCC(N(C)S(C)(=O)=O)CC3)CC2)ncnc1N1CCC(c2ccc(C(F)(F)F)cc2)CC1 [Example 17] |
| 30 nM | CO[C@@H]1COCC[C@@H]1NC1CCN(C(=O)c2ccnc(N3CCc4ccc(C(F)(F)F)cc4C3)c2C)CC1 [Example 69a] |
| 1020 nM | COC1COCCC1NC1CCN(C(=O)c2ncnc(N3CCN(c4ccc(C(F)(F)F)cn4)CC3)c2C)CC1 (stereo not drawn) [Example 56] |
| 241 nM | COC1COCCC1NC1CCN(C(=O)c2ncnc(N3CCC(c4ccccc4C(F)(F)F)CC3)c2C)CC1 (stereo not drawn) [Example 29] |
| 351 nM | COC1COCCC1NC1CCN(C(=O)c2ncnc(N3CC4CC4(c4cc(C(F)(F)F)cc(C(F)(F)F)c4)C3)c2C)CC1 (stereo not drawn) [Example 62c] |
| 49 nM | COc1cc(N2CCN(c3ncnc(C(=O)N4CCC(NC5CCOCC5OC)CC4)c3C)CC2)cc(C(F)(F)F)c1 (stereo not drawn) [Example 62ae] |
| 1 nM | CO[C@@H]1COCC[C@@H]1NC1CCN(C(=O)c2ncnc(N3COc4ccc(C(F)(F)F)cc4C3)c2C)CC1 [Example 69e] |
| 432 nM | COC1COCCC1NC1CCN(C(=O)c2ncnc(N3CCC(c4ccc(C(F)(F)F)cc4)CC3)c2C)CC1 (stereo not drawn) [Example 41] |
| 29 nM | Cc1c(C(=O)N2CCC(NC3CCOCC3F)CC2)ncnc1N1CCc2ccc(C(F)(F)F)cc2C1 (stereo not drawn) [Example 69k] |
| 159 nM | COC1COCCC1NC1CCN(C(=O)c2ncnc(N3CCC(c4ccc(C(F)(F)F)cc4)C3)c2C)CC1 (stereo not drawn) [Example 48] |
| 516 nM | COC1COCCC1NC1CCN(C(=O)c2ncnc(N3CCCN(c4ccc(Cl)cc4)CC3)c2C)CC1 (stereo not drawn) [Example 62j] |
| 1080 nM | COC1COCCC1NC1CCN(C(=O)c2ncnc(N3CCC4CC4(c4ccc(Br)cc4)C3)c2C)CC1 (stereo not drawn) [Example 62o] |
| 4 nM | COc1nc(C(=O)N2CCC(N[C@@H]3CCOC[C@@H]3OC)CC2)c(C)c(N2CCc3ccc(C(F)(F)F)cc3C2)n1 [Example 69i] |
| 89 nM | COC1COCCC1NC1CCN(C(=O)c2ncnc(N3CCN(c4ccccc4Cl)CC3)c2C)CC1 (stereo not drawn) [Example 62aa] |
| 2150 nM | COC1COCCC1NC1CCN(C(=O)c2ncnc(N3CCCC(c4cccc(C(F)(F)F)c4)C3)c2C)CC1 (stereo not drawn) [Example 9] |
| 30 nM | COC1COCCC1NC1CCN(C(=O)c2ncnc(N3CCN(c4ccccc4C(F)(F)F)CC3)c2C)CC1 (stereo not drawn) [Example 62z] |
